Where two headings read alike, the source gives them in different places.
Experiments:
Assay type in all cases: cell-based
[1] = tested on: MOLM13 (acute monocytic leukemia) cells; assay: Cell proliferation assay (ATPlite cell viability) in MOLM13 cells; conditions: for IC50: Homo sapiens
Description: 2000 cells were seeded in 50 μL of RPMI medium in each well of a white, solid bottomed 384-well plate. Plates were spun down briefly, and seeded cells were pinned with […] of the bifunctional compound at serial three-fold diluted concentrations using the JANUS® Liquid Handling Workstation. […] After compound treatment, 15 μL of 1:2 solution of ATPlite™ 1Step diluted in PBS was added to each well of the 384-well plates. Plates were put on a plate shaker for 1 minute and incubated at room temperature for 9 minutes, and the resulting luminescence signal was read using an EnVision® plate reader. Cell viability was calculated by normalizing luminescence signals of SMARC compound treated cells to that of vehicle treated cells.

[2] = tested on: MV411 (human myelomonocytic leukemia) cells; assay: Cell proliferation assay (ATPlite cell viability) in MV411 cells; conditions: for IC50: Homo sapiens, MV4-11, 48 hours
Description: 2000 cells were seeded in 50 μL of RPMI medium in each well of a white, solid bottomed 384-well plate. Plates were spun down briefly, and seeded cells were pinned with […] of the bifunctional compound at serial three-fold diluted concentrations using the JANUS® Liquid Handling Workstation. Plates were incubated at 37° C. in 5% CO2 for the indicated treatment time (48 hours). After compound treatment, 15 μL of 1:2 solution of ATPlite™ 1Step diluted in PBS was added to each well of the 384-well plates. Plates were put on a plate shaker for 1 minute and incubated at room temperature for 9 minutes, and the resulting luminescence signal was read using an EnVision® plate reader. Cell viability was calculated by normalizing luminescence signals of SMARC compound treated cells to that of vehicle treated cells.

SMARCA4 (BRG) = molecular target: T1, SMARCA4 (BRG) (Homo sapiens, UniProt P51532); assay: Cellular degradation of SMARCA4 in NOMO-1 cells (western blot); conditions: NOMO1 cells, low micromolar treatment, 24 hours, western blot FIG. 1A-1B
T1 construct: endogenous in cells; host or cells: NOMO-1 cells
Description: For each tested condition, 1 million cells were seeded into a well of a 6-well plate. After overnight incubation at 37° C. in 5% CO2, cells were treated with either DMSO or varying doses of the indicated bifunctional compound and put back into the incubator for the indicated treatment time. Treated cells were collected by transferring cell suspensions from 6-well plate wells into microcentrifuge tubes and spinning down samples at 3000 rpm for 3 minutes. Supernatant was discarded and all samples were washed with phosphate-buffered saline (PBS) to remove any remaining compound from the cells. Cells were lysed using radioimmunoprecipitation assay (RIPA) buffer and sonicated on ice for 3 seconds at 25% amplification and allowed to rest for 15-30 minutes. Lysates were then spun down at 15000 rpm for 10 minutes and supernatant was collected. Protein concentration was measured using the Pierce™ bicinchoninic acid (BCA) Protein Assay Kit from ThermoFisher Scientific according to the manufacturer's instructions. Equivalent amounts of protein were resolved by western blotting using 4-12% Bis-Tris NuPAGE™ gels (Thermo-Fisher Scientific) prior to transfer and overnight immunoblotting using primary antibodies to the proteins indicated. […]

[3] = MOLM-13, 48 hours, read-out: IC50 (μM) MOLM13-48h
[4] = MOLM-13, 72 h (starred values), read-out: IC50 (μM) MOLM13, *72 h

T1 sequence (P51532 whole entry): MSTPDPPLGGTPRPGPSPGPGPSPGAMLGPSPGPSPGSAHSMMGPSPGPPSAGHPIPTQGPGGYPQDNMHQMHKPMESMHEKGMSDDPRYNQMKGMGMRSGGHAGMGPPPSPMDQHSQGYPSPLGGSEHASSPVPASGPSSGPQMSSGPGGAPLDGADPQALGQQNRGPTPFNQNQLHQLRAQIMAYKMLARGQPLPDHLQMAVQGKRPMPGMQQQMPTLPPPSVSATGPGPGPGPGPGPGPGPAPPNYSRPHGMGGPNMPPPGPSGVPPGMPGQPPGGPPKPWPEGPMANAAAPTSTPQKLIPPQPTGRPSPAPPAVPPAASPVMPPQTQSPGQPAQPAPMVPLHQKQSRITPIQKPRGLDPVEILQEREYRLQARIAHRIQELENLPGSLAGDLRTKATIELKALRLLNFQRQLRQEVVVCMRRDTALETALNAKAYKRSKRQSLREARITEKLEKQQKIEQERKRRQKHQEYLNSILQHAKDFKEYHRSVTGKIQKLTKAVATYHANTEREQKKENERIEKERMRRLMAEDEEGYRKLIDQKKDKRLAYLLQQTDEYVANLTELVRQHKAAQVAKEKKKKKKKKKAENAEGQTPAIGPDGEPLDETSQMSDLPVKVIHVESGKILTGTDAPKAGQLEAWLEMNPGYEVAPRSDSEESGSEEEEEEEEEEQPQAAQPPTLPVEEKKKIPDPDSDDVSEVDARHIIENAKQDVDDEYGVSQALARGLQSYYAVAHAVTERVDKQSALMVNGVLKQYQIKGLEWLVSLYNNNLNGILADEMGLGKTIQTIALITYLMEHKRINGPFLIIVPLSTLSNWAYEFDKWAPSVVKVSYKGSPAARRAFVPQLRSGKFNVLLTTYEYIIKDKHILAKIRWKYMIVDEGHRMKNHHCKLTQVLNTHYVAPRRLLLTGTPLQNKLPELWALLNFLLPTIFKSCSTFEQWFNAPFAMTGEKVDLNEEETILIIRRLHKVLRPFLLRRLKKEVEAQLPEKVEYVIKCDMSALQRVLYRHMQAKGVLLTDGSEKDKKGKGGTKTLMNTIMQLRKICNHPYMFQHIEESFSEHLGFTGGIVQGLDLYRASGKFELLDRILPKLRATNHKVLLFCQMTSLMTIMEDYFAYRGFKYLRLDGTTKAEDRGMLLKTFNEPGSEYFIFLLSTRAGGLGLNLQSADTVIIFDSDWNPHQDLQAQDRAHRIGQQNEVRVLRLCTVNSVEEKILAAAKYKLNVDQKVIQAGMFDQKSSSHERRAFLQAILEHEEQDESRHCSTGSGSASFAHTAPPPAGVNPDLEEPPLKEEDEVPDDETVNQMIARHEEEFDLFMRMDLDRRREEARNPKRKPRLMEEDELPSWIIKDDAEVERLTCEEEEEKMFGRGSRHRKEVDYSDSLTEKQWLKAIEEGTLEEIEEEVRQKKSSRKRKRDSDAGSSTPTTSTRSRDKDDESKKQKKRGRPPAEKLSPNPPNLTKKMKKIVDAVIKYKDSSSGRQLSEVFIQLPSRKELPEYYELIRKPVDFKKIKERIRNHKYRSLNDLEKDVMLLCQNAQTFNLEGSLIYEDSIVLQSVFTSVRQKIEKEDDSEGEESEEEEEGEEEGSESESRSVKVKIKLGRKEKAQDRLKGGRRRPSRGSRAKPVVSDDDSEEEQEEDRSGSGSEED

IC50 [1, 3] | IC50 [2] | SMILES | other results
0.0571 µM | 0.109 µM | O=C1CCC(N2C(=O)c3cccc(NCCCCNC(=O)c4cccc(C#Cc5cc(NC(=O)Nc6ccnc(Cl)c6)ccn5)c4)c3C2=O)C(=O)N1 (racemic) [Compound 19, 3-((4-(3-(2-chloropyridin-4-yl)ureido)pyridin-2-yl)ethynyl)-N-(4-((2-(2,6-dioxopiperidin-3-yl)-1,3-dioxoisoindolin-4-yl)amino)butyl)benzamide] | IC50 (μM) MOLM13-48h ([1]; 48 hours): submicromolar; IC50 (μM) MV411-48h [2]: submicromolar
– | – | O=C1CCC(N2C(=O)c3cccc(NCCCCNC(=O)c4cccc(CCc5cc(NC(=O)Nc6ccnc(Cl)c6)ccn5)c4)c3C2=O)C(=O)N1 (stereo not drawn) [Compound 5, 3-(2-(4-(3-(2-chloropyridin-4-yl)ureido)pyridin-2-yl)ethyl)-N-(4-((2-(2,6-dioxopiperidin-3-yl)-1,3-dioxoisoindolin-4-yl)amino)butyl)benzamide] | BRG (SMARCA4) degradation (SMARCA4 (BRG)): significantly degraded
– | – | O=C1CCC(N2C(=O)c3cccc(NCCCCNC(=O)c4ccc(C#Cc5cc(NC(=O)Nc6ccnc(Cl)c6)ccn5)cc4)c3C2=O)C(=O)N1 (stereo not drawn) [Compound 6, 4-((4-(3-(2-chloropyridin-4-yl)ureido)pyridin-2-yl)ethynyl)-N-(4-((2-(2,6-dioxopiperidin-3-yl)-1,3-dioxoisoindolin-4-yl)amino)butyl)benzamide] | BRG (SMARCA4) degradation (SMARCA4 (BRG)): significantly degraded
– | 0.491 µM | O=C1CCC(N2C(=O)c3cccc(NCCCCCCCCNC(=O)c4cccc(C#Cc5cc(NC(=O)Nc6ccnc(Cl)c6)ccn5)c4)c3C2=O)C(=O)N1 (stereo not drawn) [Compound 17] | IC50 [1, 4]: 0.566 µM
0.0793 µM | 0.0102 µM | O=C1CCC(N2C(=O)c3ccc(NCCCCNC(=O)c4cccc(C#Cc5cc(NC(=O)Nc6ccnc(Cl)c6)ccn5)c4)cc3C2=O)C(=O)N1 (stereo not drawn) [Compound 21] | –
0.253 µM | 0.037 µM | O=C1CCC(N2C(=O)c3ccc(NCCOCCNC(=O)c4cccc(C#Cc5cc(NC(=O)Nc6ccnc(Cl)c6)ccn5)c4)cc3C2=O)C(=O)N1 (stereo not drawn) [Compound 22] | –
6.18 µM | 21.7 µM | O=C1CCC(N2C(=O)c3cccc(NCCNC(=O)c4cccc(C#Cc5cc(NC(=O)Nc6ccnc(Cl)c6)ccn5)c4)c3C2=O)C(=O)N1 (stereo not drawn) [Compound 23] | –
0.344 µM | 0.0389 µM | O=C1CCC(N2C(=O)c3cccc(NCCCCCCNC(=O)c4cccc(C#Cc5cc(NC(=O)Nc6ccnc(Cl)c6)ccn5)c4)c3C2=O)C(=O)N1 (stereo not drawn) [Compound 24] | –

SMILES | IC50 [1, 3] | IC50 [2] | other results
O=C1CCC(N2C(=O)c3cccc(NCCOCCOCCNC(=O)c4cccc(C#Cc5cc(NC(=O)Nc6ccnc(Cl)c6)ccn5)c4)c3C2=O)C(=O)N1 (stereo not drawn) [Compound 18] | – | 0.109 µM | IC50 [1, 4]: 1.28 µM
